Test results reported in paper PMC5290327, “SC83288 is a clinical development candidate for the treatment of severe malaria” (Nature Communications, 2017).

Tests used:
Assay in all cases: KINOMEscan
Type in all cases: binding
Conditions in all cases: read-out: Remaining enzyme activity
EPHB2 = target: T1, EPHB2 (Homo sapiens, UniProt P29323)
T1 construct: purchased Ambit (DiscoverX) KINOMEscan; Cerep
How it was run: (§1)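 qPCR of a DNA tag reports how much kinase stays bound to ligand-coated beads in the presence of 10 μM SC81458, diluted from a DMSO stock. Kinase sources were T7 phage lysates from E. coli or HEK-293-expressed protein tagged with DNA.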

NEK6 = target: T2, NEK6 (Homo sapiens, UniProt Q9HC98)
T2 construct: purchased Ambit (DiscoverX) KINOMEscan; Cerep
How it was run: as §1

LATS1 = target: T3, LATS1 (Homo sapiens, UniProt O95835)
T3 construct: purchased Ambit (DiscoverX) KINOMEscan; Cerep
How it was run: as §1

PIM1 = target: T4, PIM1 (Homo sapiens, UniProt P11309)
T4 construct: purchased Ambit (DiscoverX) KINOMEscan; Cerep
How it was run: as §1

SRC = target: T5, SRC (Homo sapiens, UniProt P12931)
T5 construct: purchased Ambit (DiscoverX) KINOMEscan; Cerep
T5 sequence (P12931 whole entry): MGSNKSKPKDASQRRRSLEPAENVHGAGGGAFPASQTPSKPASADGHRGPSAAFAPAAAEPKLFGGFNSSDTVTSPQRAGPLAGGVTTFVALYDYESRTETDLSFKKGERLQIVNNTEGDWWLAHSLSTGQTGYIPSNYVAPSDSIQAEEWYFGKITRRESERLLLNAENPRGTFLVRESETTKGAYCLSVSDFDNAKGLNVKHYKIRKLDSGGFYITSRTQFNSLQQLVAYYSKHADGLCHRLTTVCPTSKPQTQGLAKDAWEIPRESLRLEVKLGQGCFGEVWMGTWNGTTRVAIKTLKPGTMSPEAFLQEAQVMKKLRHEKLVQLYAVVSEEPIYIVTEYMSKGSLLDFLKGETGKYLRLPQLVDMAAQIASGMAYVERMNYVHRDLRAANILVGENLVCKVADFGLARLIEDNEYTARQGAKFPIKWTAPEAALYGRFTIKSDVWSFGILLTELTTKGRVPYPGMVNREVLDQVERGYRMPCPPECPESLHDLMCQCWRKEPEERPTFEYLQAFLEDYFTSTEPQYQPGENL
How it was run: as §1

p38-gamma = target: T6, p38-gamma (Homo sapiens, UniProt P53778)
T6 construct: purchased Ambit (DiscoverX) KINOMEscan; Cerep
How it was run: as §1

TESK1 = target: T7, TESK1 (Homo sapiens, UniProt Q15569)
T7 construct: purchased Ambit (DiscoverX) KINOMEscan; Cerep
How it was run: as §1

PIM3 = target: T8, PIM3 (Homo sapiens, UniProt Q86V86)
T8 construct: purchased Ambit (DiscoverX) KINOMEscan; Cerep
How it was run: as §1

KIT(V559D, V654A) = target: T9, KIT(V559D, V654A) (Homo sapiens, UniProt P10721, V559D/V654A)
T9 construct: purchased Ambit (DiscoverX) KINOMEscan; Cerep
How it was run: as §1

WEE2 = target: T10, WEE2 (Homo sapiens, UniProt P0C1S8)
T10 construct: purchased Ambit (DiscoverX) KINOMEscan; Cerep
How it was run: as §1

AAK1 = target: T11, AAK1 (Homo sapiens, UniProt Q2M2I8)
T11 construct: purchased Ambit (DiscoverX) KINOMEscan; Cerep
How it was run: as §1

INSRR = target: T12, INSRR (Homo sapiens, UniProt P14616)
T12 construct: purchased Ambit (DiscoverX) KINOMEscan; Cerep
How it was run: as §1

SIK2 = target: T13, SIK2 (Homo sapiens, UniProt Q9H0K1)
T13 construct: purchased Ambit (DiscoverX) KINOMEscan; Cerep
How it was run: as §1

GSK3b = target: T14, GSK3b (Homo sapiens, UniProt P49841)
T14 construct: purchased Ambit (DiscoverX) KINOMEscan; Cerep
How it was run: as §1

PLK2 = target: T15, PLK2 (Homo sapiens, UniProt Q9NYY3)
T15 construct: purchased Ambit (DiscoverX) KINOMEscan; Cerep
How it was run: as §1

FYN = target: T16, FYN (Homo sapiens, UniProt P06241)
T16 construct: purchased Ambit (DiscoverX) KINOMEscan; Cerep
How it was run: as §1

AMPK-alpha2 = target: T17, AMPK-alpha2 (Homo sapiens, UniProt P54646)
T17 construct: purchased Ambit (DiscoverX) KINOMEscan; Cerep
How it was run: as §1

NEK9 = target: T18, NEK9 (Homo sapiens, UniProt Q8TD19)
T18 construct: purchased Ambit (DiscoverX) KINOMEscan; Cerep
How it was run: as §1

PIK3CA(E545A) = target: T19, PIK3CA(E545A) (Homo sapiens, UniProt P42336, E545A)
T19 construct: purchased Ambit (DiscoverX) KINOMEscan; Cerep
How it was run: as §1

RET(M918T) = target: T20, RET(M918T) (Homo sapiens, UniProt P07949, M918T)
T20 construct: purchased Ambit (DiscoverX) KINOMEscan; Cerep
T20 sequence (P07949 29-1114 M918T): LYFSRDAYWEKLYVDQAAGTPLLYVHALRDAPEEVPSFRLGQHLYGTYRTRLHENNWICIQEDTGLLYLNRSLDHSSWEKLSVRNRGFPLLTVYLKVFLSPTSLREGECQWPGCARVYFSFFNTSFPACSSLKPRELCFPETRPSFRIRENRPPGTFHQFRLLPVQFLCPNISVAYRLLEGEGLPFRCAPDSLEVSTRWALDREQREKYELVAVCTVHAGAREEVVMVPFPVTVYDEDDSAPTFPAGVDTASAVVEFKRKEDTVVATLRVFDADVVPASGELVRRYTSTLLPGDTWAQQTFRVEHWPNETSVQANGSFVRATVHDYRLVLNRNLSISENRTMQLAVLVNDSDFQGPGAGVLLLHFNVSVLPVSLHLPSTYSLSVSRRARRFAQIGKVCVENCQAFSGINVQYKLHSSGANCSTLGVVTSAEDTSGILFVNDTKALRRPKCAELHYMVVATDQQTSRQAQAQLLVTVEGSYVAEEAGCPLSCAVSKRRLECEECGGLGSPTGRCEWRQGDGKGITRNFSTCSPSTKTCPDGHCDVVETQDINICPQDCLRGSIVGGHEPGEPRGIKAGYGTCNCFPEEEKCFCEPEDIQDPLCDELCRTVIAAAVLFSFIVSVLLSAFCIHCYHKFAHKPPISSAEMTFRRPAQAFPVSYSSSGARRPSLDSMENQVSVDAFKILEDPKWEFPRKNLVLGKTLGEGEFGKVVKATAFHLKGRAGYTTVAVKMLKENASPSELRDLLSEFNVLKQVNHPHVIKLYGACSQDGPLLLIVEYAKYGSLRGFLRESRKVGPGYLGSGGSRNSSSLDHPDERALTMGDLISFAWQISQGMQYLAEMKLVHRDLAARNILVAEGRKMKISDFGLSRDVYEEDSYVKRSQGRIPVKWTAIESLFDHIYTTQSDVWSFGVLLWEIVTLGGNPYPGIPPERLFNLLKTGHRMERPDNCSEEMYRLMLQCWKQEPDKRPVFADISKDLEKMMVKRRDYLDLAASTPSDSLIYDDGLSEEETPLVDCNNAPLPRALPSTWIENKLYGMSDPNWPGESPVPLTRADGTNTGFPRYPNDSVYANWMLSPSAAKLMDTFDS
How it was run: as §1

ERN1 = target: T21, ERN1 (Homo sapiens, UniProt O75460)
T21 construct: purchased Ambit (DiscoverX) KINOMEscan; Cerep
How it was run: as §1

EGFR(L747-T751del, Sins) = target: T22, EGFR(L747-T751del, Sins) (Homo sapiens, UniProt P00533, DEL747-750/T751S)
T22 construct: purchased Ambit (DiscoverX) KINOMEscan; Cerep
How it was run: as §1

TAK1 = target: T23, TAK1 (Homo sapiens, UniProt O43318)
T23 construct: purchased Ambit (DiscoverX) KINOMEscan; Cerep
T23 sequence (O43318 whole entry): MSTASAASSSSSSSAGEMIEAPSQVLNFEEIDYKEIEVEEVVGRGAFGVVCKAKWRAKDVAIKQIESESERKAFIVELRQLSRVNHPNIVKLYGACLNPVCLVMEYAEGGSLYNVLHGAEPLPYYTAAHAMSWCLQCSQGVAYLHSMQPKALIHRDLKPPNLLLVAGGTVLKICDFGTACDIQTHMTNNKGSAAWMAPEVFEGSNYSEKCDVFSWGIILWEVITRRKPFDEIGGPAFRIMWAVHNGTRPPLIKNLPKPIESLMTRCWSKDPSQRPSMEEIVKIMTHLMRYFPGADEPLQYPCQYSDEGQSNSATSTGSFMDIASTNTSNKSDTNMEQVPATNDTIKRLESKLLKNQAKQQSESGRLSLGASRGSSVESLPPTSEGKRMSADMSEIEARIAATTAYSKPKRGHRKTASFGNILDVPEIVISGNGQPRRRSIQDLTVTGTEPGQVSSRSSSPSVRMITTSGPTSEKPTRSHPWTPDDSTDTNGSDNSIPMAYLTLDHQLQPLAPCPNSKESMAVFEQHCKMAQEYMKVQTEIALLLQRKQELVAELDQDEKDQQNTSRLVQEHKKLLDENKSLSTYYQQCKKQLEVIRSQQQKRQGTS
How it was run: as §1

GRK7 = target: T24, GRK7 (Homo sapiens, UniProt Q8WTQ7)
T24 construct: purchased Ambit (DiscoverX) KINOMEscan; Cerep
T24 sequence (Q8WTQ7 whole entry): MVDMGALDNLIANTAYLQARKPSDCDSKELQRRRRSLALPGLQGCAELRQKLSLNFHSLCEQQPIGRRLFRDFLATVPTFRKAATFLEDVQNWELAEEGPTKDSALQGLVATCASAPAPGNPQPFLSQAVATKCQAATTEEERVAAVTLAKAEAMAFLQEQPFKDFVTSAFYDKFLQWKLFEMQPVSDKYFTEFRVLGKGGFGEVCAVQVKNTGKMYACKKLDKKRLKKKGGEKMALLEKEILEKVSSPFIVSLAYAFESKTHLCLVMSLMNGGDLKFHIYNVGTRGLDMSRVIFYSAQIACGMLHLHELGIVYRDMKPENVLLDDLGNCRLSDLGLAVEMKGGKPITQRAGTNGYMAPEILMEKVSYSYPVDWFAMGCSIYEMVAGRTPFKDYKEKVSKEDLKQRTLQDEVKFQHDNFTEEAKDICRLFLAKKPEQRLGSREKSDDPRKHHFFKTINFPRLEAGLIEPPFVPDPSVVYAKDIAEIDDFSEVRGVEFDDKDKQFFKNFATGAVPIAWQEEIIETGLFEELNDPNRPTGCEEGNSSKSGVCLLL
How it was run: as §1

TRKc = target: T25, TRKc (Homo sapiens, UniProt Q16288)
T25 construct: purchased Ambit (DiscoverX) KINOMEscan; Cerep
T25 sequence (Q16288 32-839): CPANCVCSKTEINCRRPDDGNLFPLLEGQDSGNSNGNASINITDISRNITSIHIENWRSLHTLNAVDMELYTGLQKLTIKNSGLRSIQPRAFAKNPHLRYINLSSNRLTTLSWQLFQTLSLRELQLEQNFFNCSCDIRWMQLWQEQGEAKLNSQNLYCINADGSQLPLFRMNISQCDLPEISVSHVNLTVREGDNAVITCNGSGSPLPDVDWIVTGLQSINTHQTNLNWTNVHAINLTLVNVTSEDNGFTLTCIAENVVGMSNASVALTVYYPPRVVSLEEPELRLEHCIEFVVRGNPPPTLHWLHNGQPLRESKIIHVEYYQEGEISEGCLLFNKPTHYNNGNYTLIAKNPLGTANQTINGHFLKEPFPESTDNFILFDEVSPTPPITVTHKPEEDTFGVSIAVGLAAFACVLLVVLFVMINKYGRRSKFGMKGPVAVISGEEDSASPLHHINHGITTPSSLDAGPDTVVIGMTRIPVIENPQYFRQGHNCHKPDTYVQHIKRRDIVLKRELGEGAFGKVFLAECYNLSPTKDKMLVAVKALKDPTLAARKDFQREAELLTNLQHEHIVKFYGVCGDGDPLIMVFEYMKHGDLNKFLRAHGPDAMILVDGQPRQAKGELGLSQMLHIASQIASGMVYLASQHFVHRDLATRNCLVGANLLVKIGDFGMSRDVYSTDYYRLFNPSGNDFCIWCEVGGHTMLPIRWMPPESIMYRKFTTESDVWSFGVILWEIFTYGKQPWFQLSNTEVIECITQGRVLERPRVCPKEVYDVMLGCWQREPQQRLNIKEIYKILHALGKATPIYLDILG
How it was run: as §1

PRKCE = target: T26, PRKCE (Homo sapiens, UniProt Q02156)
T26 construct: purchased Ambit (DiscoverX) KINOMEscan; Cerep
How it was run: as §1

PAK6 = target: T27, PAK6 (Homo sapiens, UniProt Q9NQU5)
T27 construct: purchased Ambit (DiscoverX) KINOMEscan; Cerep
How it was run: as §1

PIM2 = target: T28, PIM2 (Homo sapiens, UniProt Q9P1W9)
T28 construct: purchased Ambit (DiscoverX) KINOMEscan; Cerep
T28 sequence (Q9P1W9 whole entry): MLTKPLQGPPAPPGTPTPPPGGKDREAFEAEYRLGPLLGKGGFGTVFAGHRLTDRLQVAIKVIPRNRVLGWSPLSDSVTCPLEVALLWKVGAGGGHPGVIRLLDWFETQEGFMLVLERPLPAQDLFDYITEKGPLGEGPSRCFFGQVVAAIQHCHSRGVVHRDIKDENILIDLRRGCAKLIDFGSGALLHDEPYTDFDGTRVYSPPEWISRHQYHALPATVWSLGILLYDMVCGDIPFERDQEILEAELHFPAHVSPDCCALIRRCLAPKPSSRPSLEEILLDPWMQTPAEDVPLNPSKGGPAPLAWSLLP
How it was run: as §1

PCTk3 = target: T29, PCTk3 (Homo sapiens, UniProt Q07002)
T29 construct: purchased Ambit (DiscoverX) KINOMEscan; Cerep
How it was run: as §1

[1] = target: T30, JAK3(JH1domain-catalytic) (Homo sapiens, UniProt P52333)
T30 construct: JAK3(JH1domain-catalytic); purchased Ambit (DiscoverX) KINOMEscan; Cerep
How it was run: as §1

ZAK = target: T31, ZAK (Homo sapiens, UniProt Q9NYL2)
T31 construct: purchased Ambit (DiscoverX) KINOMEscan; Cerep
T31 sequence (Q9NYL2 whole entry): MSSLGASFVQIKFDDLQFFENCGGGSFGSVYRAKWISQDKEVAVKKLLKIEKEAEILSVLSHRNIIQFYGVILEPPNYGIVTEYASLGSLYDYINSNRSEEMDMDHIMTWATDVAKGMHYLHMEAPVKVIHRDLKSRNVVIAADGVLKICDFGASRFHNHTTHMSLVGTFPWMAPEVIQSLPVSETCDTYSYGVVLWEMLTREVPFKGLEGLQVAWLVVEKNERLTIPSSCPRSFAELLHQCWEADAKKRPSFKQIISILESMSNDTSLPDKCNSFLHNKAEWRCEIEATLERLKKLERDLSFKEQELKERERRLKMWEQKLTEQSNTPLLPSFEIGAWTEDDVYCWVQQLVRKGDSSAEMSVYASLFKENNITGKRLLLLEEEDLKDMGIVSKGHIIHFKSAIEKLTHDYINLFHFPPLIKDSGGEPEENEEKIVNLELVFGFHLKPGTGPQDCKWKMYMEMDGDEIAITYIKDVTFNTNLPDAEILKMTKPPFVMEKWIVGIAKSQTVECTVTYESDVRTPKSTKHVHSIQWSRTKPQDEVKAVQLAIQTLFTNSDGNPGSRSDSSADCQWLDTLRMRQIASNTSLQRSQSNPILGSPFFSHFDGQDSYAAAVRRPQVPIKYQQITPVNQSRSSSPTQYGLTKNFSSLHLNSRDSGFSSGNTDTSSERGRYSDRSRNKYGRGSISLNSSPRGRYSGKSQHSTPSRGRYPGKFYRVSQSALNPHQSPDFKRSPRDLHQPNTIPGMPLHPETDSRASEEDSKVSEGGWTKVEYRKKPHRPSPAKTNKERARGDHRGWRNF
How it was run: as §1

MELK = target: T32, MELK (Homo sapiens, UniProt Q14680)
T32 construct: purchased Ambit (DiscoverX) KINOMEscan; Cerep
How it was run: as §1

SgK085 = target: T33, SgK085 (Homo sapiens, UniProt Q86YV6)
T33 construct: purchased Ambit (DiscoverX) KINOMEscan; Cerep
How it was run: as §1

CCCCN1CCN(C(=N)c2cccc(NC(=O)Nc3ccc(S(=O)(=O)NCc4ccc(S(N)(=O)=O)cc4)cc3)c2)CC1 [SC81458, 4-(3-(3-((4-butylpiperazin-1-yl)(imino)methyl)phenyl)ureido)-N-(4-sulfamoylbenzyl) benzenesulfonamide]
remaining binding at 10 µM (EPHB2): 100% | remaining binding at 10 µM (NEK6): 100% | remaining binding at 10 µM (LATS1): 82% | remaining binding at 10 µM (PIM1): 100% | remaining binding at 10 µM (SRC): 81% | remaining binding at 10 µM (p38-gamma): 85% | remaining binding at 10 µM (TESK1): 100% | remaining binding at 10 µM (PIM3): 100% | remaining binding at 10 µM (KIT(V559D, V654A)): 100% | remaining binding at 10 µM (WEE2): 100% | remaining binding at 10 µM (AAK1): 100% | remaining binding at 10 µM (INSRR): 95% | remaining binding at 10 µM (SIK2): 100% | remaining binding at 10 µM (GSK3b): 100% | remaining binding at 10 µM (PLK2): 100% | remaining binding at 10 µM (FYN): 100% | remaining binding at 10 µM (AMPK-alpha2): 96% | remaining binding at 10 µM (NEK9): 100% | remaining binding at 10 µM (PIK3CA(E545A)): 100% | remaining binding at 10 µM (RET(M918T)): 100% | remaining binding at 10 µM (ERN1): 100% | remaining binding at 10 µM (EGFR(L747-T751del, Sins)): 69% | remaining binding at 10 µM (TAK1): 100% | remaining binding at 10 µM (GRK7): 100% | remaining binding at 10 µM (TRKc): 100% | remaining binding at 10 µM (PRKCE): 100% | remaining binding at 10 µM (PAK6): 95% | remaining binding at 10 µM (PIM2): 87% | remaining binding at 10 µM (PCTk3): 98% | remaining binding at 10 µM [1]: 100% | remaining binding at 10 µM (ZAK): 100% | remaining binding at 10 µM (MELK): 100% | remaining binding at 10 µM (SgK085): 100%
